# Assay results reported in patent US20160271157A1, “BETA-CATENIN” (UCL BUSINESS PLC, priority 2013, published 2016).
# “Also recorded” adds a separate entry of the source. Read-outs that look alike come from different tables or passages of the source.
# Assays:
# [1] = test system: Wnt induced calcium release; experiment: Wnt induced [Ca2+]i release after preincubation with thapsigargin or membrane potential regulating compounds; type: cell-based
# Description: The imaging protocol was developed in the inventor's laboratory and has been described in detail, elsewhere (Wang at al., (2010) PLoS ONE 5, e10456). Briefly, 100000-200000 PC3, MCF7, 253J or Cos 7 cells were plated on 35 mm FluoroDish (WPI) and grown for 48 h; calcium indicators Fluo-4 (Invitrogen) and FuraRed (Invitrogen) at 1 ng/ml were added to FluoroDish containing only 1 ml of culture medium and incubated for 15-20 min at 37° C. The culture medium was removed and washed (×2) and replaced with 1 ml PBS. Live cell calcium Imaging was performed on an Olympus FluoView FV 1000 confocal microscope (Olympus KeyMed) equipped with a 20× dry objective (numerical aperture=0.75). Calcium indicators were excited with an argon laser line (488 nm) and emissions recorded in the green channel (500-560 nm) for Fluo-4 and red channel (600-700 nm) for FuraRed after addition of vehicle control (PBS) or Wnt X (30-600 ng/ml). Images were acquired every 1.1 or 2.2 seconds for up to 600-800s; image and data acquisition was performed using FluoView 1000 software (Olympus, UK). Fluorescent intensity was measured and data exported as a tab delimited file for further analysis using a spreadsheet. All imaging experiments were performed in duplicate; intracellular calcium at 100 ng/ml was measured in at least 3-12 different passages (passage numbers 25 to 37) of cell line for each Wnt ligand. Wnt 11 was tested in at least 5 different passages at 3 different concentrations. […]
# To measure the effect of changes in membrane potential on [Ca^2+]i release using the protocol described above, in some experiments, external solution (PBS) was substituted with varying concentrations of KCl. In other experiments chemical inhibitors of K^+ channels such as TEA, CsCl or tolbutamide (Sigma-Aldrich) were added to the cells grown on FluoroDish, at 37° C., at least 5 min prior to addition of Wnt ligands.
# After image acquisition, regions of interest (ROI) were drawn over individual PC3 cells (up to 25) in a single frame and calcium intensity measurements were made using FluoView 1000 software (Olympus, UK). The measurements were exported as a tab delimited file into a spreadsheet for further analysis and Fluo4/Fura Red ratios were calculated. The waveform, a product of the ratio of Fluo4 and FuraRed over the period of measurement was used to measure the kinetics of the activation of [Ca^2+]i release in PC3 cells, in response to different Wnt ligands. The time constants (rise, dwell and fall times) were calculated by first fitting the Fluo4/FuraRed ratio to a single Gaussian function (Origin Lab Corp., MA); a lower (10%) and upper (90%) amplitude thresholding method was then used to calculate the time constants (s). Statistical significance was calculated using Mann Whitney U test.
# [2] = test system: β-catenin translocation to the nucleus; experiment: β-catenin immunocytochemistry and nuclear co-localization analysis, PC3; type: cell-based; conditions: PC3 cells, K+ channel inhibitors 1-15 mM, Wnt5A and 9B
# Description: Immunostaining was performed in two different laboratories, independently with the experimenter blind to the identity of the treatment. Either cells used in FluoroDish, post [Ca^2+]i experiments using dyes (see above) or grown in 8 well chamber glass slides (Lab Tek II, Nunc) were used. For Wnt ligand treatment, the culture medium replaced with PBS (without calcium) at 37° C. The experiments were replicated for Wnt ligand or vehicle control as described for [Ca^2+]i measurements. Briefly, Wnt ligands were added and chamber slides incubated at 37° C. for up to 20 min. Chamber wells were washed 3× with 0.5 ml PBS and cells were fixed with 0.5 ml 4% formalin for 30 min at 4° C. Cells were washed 3× with ice cold PBS and stored in 0.5 ml PBS at 4° C. for immunostaining. In some experiments PC3 cells were treated with thaspsigargin as described above.
# For immunostaining cells were washed twice for 5 minutes in TBST (20 mM Tris pH 7.4, 0.9% NaCl, 0.1% Tween 20, Sigma). Cells were then incubated in 20% normal goat serum (NGS)/TBST for 30 min at room temperature, the chambers were drained and cells were incubated with mouse anti-β-catenin (ab22656, Abcam, UK) at 1:500 dilution in NGS/TBST overnight at 4° C. Following two further 5 min washes in TBST sections were incubated in goat anti-mouse peroxidase fab (Abcam, UK) at 1:500 dilution for 30 min at room temperature. Following a further two 5 min washes in TBST cells were incubated with tyramide Cy3 (Perkin Elmer) for 10 min at room temperature. Sections were washed twice for 5 min in TBST before nuclear counterstaining with DAPI. After a final two 5 min washes, the chambers were removed and cover slip placed on slides using Permafluor (Thermo Shandon).
# Fluorescence immunocytochemical staining for β-catenin expression in cell lines was imaged using Olympus Fluoview 1000 Confocal Microscope (Olympus KeyMed) mounted on an Olympus IX81 inverted microscope using a 20×0.7 NA or 40×1.0 NA dry objective with a zoom of ×3.4′,6-diamidino-2-phenylindole (DAPI, nuclear counterstain) was excited at 405 nm with an emission of 415-500 nm; Cy3 (β-catenin label) signal was excited at 561 nm with an emission spectrum between 570-670 nm. […] Z-stacks of at least 3 fields per sample were imaged and saved in Olympus FV (OIF or OIB) file format.
# Nuclear co-localization of β-catenin was calculated by importing FV files for untreated, control or treated cells, into colocalization plugin of Fiji software (http://fiji.sc/Fiji) for Cy3 (β-catenin) and DAPI (nuclear) signals. Pearson co-relation of colocalization were tabulated for 25-90 cells (from 2-5 different passages of cells) using ROI analysis. Statistical significance between untreated and treated cells was calculated using Mann Whitney U test.
# [3] = test system: PC3 prostate cancer cell line; experiment: Cell proliferation assay, live imaging (Incucyte), PC3; type: cell-based
# Description: Growth curve was monitored at 37° C. in a CO2 incubator by using time lapse imaging with Incucyte (Essen Biosciences) for up to 150 h after plating the cells (t=o) at a density of 25-100 k cells per well in a 6 well plate (Nunc). MPRCs were added at the stated concentrations 24 h after cell plating;
# A live imaging system (Incucyte, EssenBiosciences) was used to measure the effect of K^+ channel inhibitors on the rate of cell proliferation. PC3 cells were plated on 6 well plates (Nunc) in 3 ml culture medium (Wang et al (2010) PLoS ONE 5, e10456); K^+ channel inhibitors were added to the wells at 0-15 mM. The plates were placed in Incucyte in a standard cell culture incubator at 37° C. and CO2. Each well was imaged at an interval of up to 4 h and rate of cell proliferation was calculated from these images using Incucyte software.
# [4] = test system: MCF7 breast cancer cell line; experiment: Cell growth, time lapse imaging (Incucyte), MCF7; type: cell-based, human; conditions: MCF7 cells, nicorandil shown as an example
# Description: Growth curve was monitored at 37° C. in a CO2 incubator by using time lapse imaging with Incucyte (Essen Biosciences) for up to 150 h after plating the cells (t=o) at a density of 25-100 k cells per well in a 6 well plate (Nunc). MPRCs were added at the stated concentrations 24 h after cell plating.
# [5] = preincubation 5 min, Wnt 9B 0.1 μg/ml as example, CsCl 5 mM, CdCl2 1 mM, TEA 10 mM, Amiodarone 75 μM, Tolbutamide 1 mM, Isradipine 100 μM, Nifedipine 1 mM, Minoxidil 25 μM, Atenolol 37.5 μM, Propanolol 50 μM, Furosemide 150 μM
# [6] = PC3 cells, inhibitors at 0-15 mM
SMILES,"Wnt ligand induced calcium release after preincubation with MPRC (FIG. 16) [1, 5]",Wnt mediated β-catenin stabilization and translocation to the nucleus (FIG. 11) [2],"rate of cell proliferation (confluence of cell growth, FIG. 12) [3, 6]",other results
[Cl-].[Cs+] [CsCl],inhibited,reduced,inhibit proliferation,–
CCCCNC(=O)NS(=O)(=O)c1ccc(C)cc1 [Tolbutamide],inhibited,reduced; also recorded: inhibition,inhibit proliferation,"rate of cell proliferation (confluence of cell growth, FIG. 12) ([3]; PC3 cells, inhibitors at 0-15 mM, listed as tolbutamide): inhibition"
CC(C)NCC(O)COc1cccc2ccccc12 (stereo not drawn) [Propanolol],inhibited,–,–,–
"CC[N+](CC)(CC)CC [TEA, tetraethylammonium]",–,reduced; also recorded: biggest reduction,–,"Wnt induced [Ca2+]i release after pre-incubation with K+ channel blocker (FIG. 11) [1]: reduced; also recorded: abolished; Wnt ligand induced calcium release after preincubation with MPRC (FIG. 16) [1]: inhibited; rate of cell proliferation (confluence of cell growth, FIG. 12) [3]: inhibit proliferation"
O=C(NCCO[N+](=O)[O-])c1cccnc1 [Nicorandil],–,–,–,"Wnt signaling measured using intracellular calcium release (FIG. 22 A and B) [1]: do not inhibit; cell proliferation (FIG. 22 C) ([3]; PC3 cells, Incucyte, nicorandil shown as an example): do not inhibit; cell proliferation (FIG. 22 D) [4]: do not inhibit"
